Values after ≈ are worked out from the molar mass of the structure shown. Like-named read-outs stand apart in the source and are kept apart here.
What was measured:
[1] = Stability with oxidizing and reducing agents at pH 7 and pH 9 (HPLC); assay type: physicochemical
Procedure: Oxidizing agents (2 mM) included hydrogen peroxide (H2O2; 68 ppm), t-butyl hydrogen peroxide (t-BHP; 180 ppm), and potassium persulfate (K2O8S2; 540 ppm). Reducing agents (2 mM) included iso-ascorbic acid (IAA; 352 ppm) and sodium bisulfite (NaHSO3; 208 ppm). Biocides were tested at 1 mM concentrations, representing 115 ppm MI and […].
The pH 7.0 buffer contained 0.00426% monopotassium phosphate plus 0.019% magnesium chloride hexahydrate. The pH 9.0 buffer contained 0.0046 M hydrochloric acid plus 0.013 M borax. Stock solutions of the redox agents were prepared and added to aliquots of each buffer to give 2 mM concentrations. The biocides were then added to give 1 mM concentrations. The samples were stored at 25° C. and analyzed for biocide level by HPLC at 0, 2 and 8 days.

[2] = Stability in buffered water at various pH and temperatures (HPLC); assay type: physicochemical
Procedure: Biocides were added to buffer solutions and stability was tested at 22° and 50° C. using HPLC to measure biocide concentration at 0 time, 21 days, 43 days, and 88-90 days. Biocide stability was determined in the following buffer solutions: pH2, 0.01M HCl; pH6, 0.1M KH2PO4; pH8, 0.025M borate; pH10, 0.025M borate; pH12, 0.05M Na2HPO4. Biocide concentrations tested were 100 ppm MI, 200 ppm BIT, 44 ppm CMI.

Alcaligenes faecalis #93 = assay: MIC at pH 7.1 or pH 9.0, half strength TSB; assay type: cell-based; details: Alcaligenes faecalis, 72 h, three days, read-out: Minimum Inhibitory Concentration
Procedure: (§1) Minimum inhibitory concentration (MIC) studies were conducted to determine the lowest level of biocide required to inhibit growth of bacteria and fungi. Tests were conducted in 96-well microtiter plates. Biocides were added to growth media in the plates and serially diluted to obtain a range of concentrations. Tests were conducted in one-half strength trypticase soy broth (TSB; adjusted to pH 7.1 or pH 9.0). Bacteria and fungi were added to samples at 10^6 colony forming units per ml and incubated at 30° C. for three days. MIC values were determined visually on a growth no-growth basis.

[3] = test system: Alcaligenes xylosoxydans #95; assay: MIC at pH 7.1 or pH 9.0, half strength TSB; assay type: cell-based; details: Achromobacter xylosoxidans, 72 h, three days, read-out: Minimum Inhibitory Concentration
Procedure: as §1

Aspergillus niger #128 = assay: MIC at pH 7.1 or pH 9.0, half strength TSB; assay type: cell-based; details: Aspergillus niger, 72 h, three days, read-out: Minimum Inhibitory Concentration
Procedure: as §1

Aspergillus sp. #120 = assay: MIC at pH 7.1 or pH 9.0, half strength TSB; assay type: cell-based; details: Aspergillus, 72 h, three days, read-out: Minimum Inhibitory Concentration
Procedure: as §1

[4] = test system: Pseudomonas aeruginosa #13; assay: MIC at pH 7.1 or pH 9.0, half strength TSB; assay type: cell-based; details: Pseudomonas aeruginosa, 72 h, three days, read-out: Minimum Inhibitory Concentration
Procedure: as §1

Pseudomonas diminuta #99 = assay: MIC at pH 7.1 or pH 9.0, half strength TSB; assay type: cell-based; details: Brevundimonas diminuta, 72 h, three days, read-out: Minimum Inhibitory Concentration
Procedure: as §1

[5] = test system: Pseudomonas pseudoalcaligenes #15; assay: MIC at pH 7.1 or pH 9.0, half strength TSB; assay type: cell-based; details: Ectopseudomonas oleovorans, 72 h, three days, read-out: Minimum Inhibitory Concentration
Procedure: as §1

Rhodotorula rubra #156 = assay: MIC at pH 7.1 or pH 9.0, half strength TSB; assay type: cell-based; details: Rhodotorula, 72 h, three days, read-out: Minimum Inhibitory Concentration
Procedure: as §1

Streptomyces sp. #130 = assay: MIC at pH 7.1 or pH 9.0, half strength TSB; assay type: cell-based; details: Streptomyces, 72 h, three days, read-out: Minimum Inhibitory Concentration
Procedure: as §1

[6] = K-persulfate 2 mM, pH 7, 25° C.
[7] = K-persulfate 2 mM, pH 9, 25° C.
[8] = Na bisulfite 2 mM, pH 7, 25° C.
[9] = Na bisulfite 2 mM, pH 9, 25° C.

Cn1sccc1=O [MI, 2-methyl-4-isothiazolin-3-one]
% Remaining after 2 Days ([1]; H2O2 2 mM, pH 7, 25° C.): 100% | % Remaining after 8 Days ([1]; H2O2 2 mM, pH 7, 25° C.): 100% | % Remaining after 2 Days ([1]; H2O2 2 mM, pH 9, 25° C.): 94% | % Remaining after 8 Days ([1]; H2O2 2 mM, pH 9, 25° C.): 88% | % Remaining after 2 Days ([1]; IAA 2 mM, pH 7, 25° C.): 100% | % Remaining after 8 Days ([1]; IAA 2 mM, pH 7, 25° C.): 96% | % Remaining after 2 Days ([1]; IAA 2 mM, pH 9, 25° C.): 105% | % Remaining after 8 Days ([1]; IAA 2 mM, pH 9, 25° C.): 103% | % Remaining after 2 Days [1, 6]: 90% | % Remaining after 8 Days [1, 6]: 75% | % Remaining after 2 Days [1, 7]: 93% | % Remaining after 8 Days [1, 7]: 73% | % Remaining after 2 Days [1, 8]: 29% | % Remaining after 8 Days [1, 8]: 26% | % Remaining after 2 Days [1, 9]: 70% | % Remaining after 8 Days [1, 9]: 78% | % Remaining after 2 Days ([1]; no redox agent, pH 7, 25° C.): 100% | % Remaining after 8 Days ([1]; no redox agent, pH 7, 25° C.): 100% | % Remaining after 2 Days ([1]; no redox agent, pH 9, 25° C.): 100% | % Remaining after 8 Days ([1]; no redox agent, pH 9, 25° C.): 100% | % Remaining after 2 Days ([1]; t-BHP 2 mM, pH 7, 25° C.): 99% | % Remaining after 8 Days ([1]; t-BHP 2 mM, pH 7, 25° C.): 102% | % Remaining after 2 Days ([1]; t-BHP 2 mM, pH 9, 25° C.): 98% | % Remaining after 8 Days ([1]; t-BHP 2 mM, pH 9, 25° C.): 96% | Percent Remaining at: pH 2 ([2]; 22° C., day 0): 100% | Percent Remaining at: pH 6 ([2]; 22° C., day 0): 100% | Percent Remaining at: pH 8 ([2]; 22° C., day 0): 100% | Percent Remaining at: pH 10 ([2]; 22° C., day 0): 100% | Percent Remaining at: pH 12 ([2]; 22° C., day 0): 100% | Percent Remaining at: pH 2 ([2]; 22° C., day 21): 104% | Percent Remaining at: pH 6 ([2]; 22° C., day 21): 100% | Percent Remaining at: pH 8 ([2]; 22° C., day 21): 100% | Percent Remaining at: pH 10 ([2]; 22° C., day 21): 100% | Percent Remaining at: pH 12 ([2]; 22° C., day 21): 98% | Percent Remaining at: pH 2 ([2]; 22° C., day 43): 98% | Percent Remaining at: pH 6 ([2]; 22° C., day 43): 94% | Percent Remaining at: pH 8 ([2]; 22° C., day 43): 95% | Percent Remaining at: pH 10 ([2]; 22° C., day 43): 89% | Percent Remaining at: pH 12 ([2]; 22° C., day 43): 93% | Percent Remaining at: pH 2 ([2]; 22° C., day 88): 100% | Percent Remaining at: pH 6 ([2]; 22° C., day 88): 100% | Percent Remaining at: pH 8 ([2]; 22° C., day 88): 100% | Percent Remaining at: pH 10 ([2]; 22° C., day 88): 100% | Percent Remaining at: pH 12 ([2]; 22° C., day 88): 100% | Percent Remaining at: pH 2 ([2]; 50° C., day 0): 100% | Percent Remaining at: pH 6 ([2]; 50° C., day 0): 100% | Percent Remaining at: pH 8 ([2]; 50° C., day 0): 100% | Percent Remaining at: pH 10 ([2]; 50° C., day 0): 100% | Percent Remaining at: pH 12 ([2]; 50° C., day 0): 100% | Percent Remaining at: pH 2 ([2]; 50° C., day 21): 100% | Percent Remaining at: pH 6 ([2]; 50° C., day 21): 98% | Percent Remaining at: pH 8 ([2]; 50° C., day 21): 100% | Percent Remaining at: pH 10 ([2]; 50° C., day 21): 98% | Percent Remaining at: pH 12 ([2]; 50° C., day 21): 90% | Percent Remaining at: pH 2 ([2]; 50° C., day 43): 97% | Percent Remaining at: pH 6 ([2]; 50° C., day 43): 93% | Percent Remaining at: pH 8 ([2]; 50° C., day 43): 95% | Percent Remaining at: pH 10 ([2]; 50° C., day 43): 93% | Percent Remaining at: pH 12 ([2]; 50° C., day 43): 78% | Percent Remaining at: pH 2 ([2]; 50° C., day 90): 100% | Percent Remaining at: pH 6 ([2]; 50° C., day 90): 100% | Percent Remaining at: pH 8 ([2]; 50° C., day 90): 100% | Percent Remaining at: pH 10 ([2]; 50° C., day 90): 100% | Percent Remaining at: pH 12 ([2]; 50° C., day 90): 76% | MIC (Alcaligenes faecalis #93; pH 7.1, 30° C.): 3.2 mg/L (≈ 27.8 µM) | MIC (Alcaligenes faecalis #93; pH 9.0, 30° C.): 6.3 mg/L (≈ 54.7 µM) | MIC ([3]; pH 7.1, 30° C.): 12.5 mg/L (≈ 109 µM) | MIC ([3]; pH 9.0, 30° C.): 25 mg/L (≈ 217 µM) | MIC (Aspergillus niger #128; pH 7.1, 30° C.): 100 mg/L (≈ 868 µM) | MIC (Aspergillus niger #128; pH 9.0, 30° C.): 100 mg/L (≈ 868 µM) | MIC (Aspergillus sp. #120; pH 7.1, 30° C.): 50 mg/L (≈ 434 µM) | MIC (Aspergillus sp. #120; pH 9.0, 30° C.): 50 mg/L (≈ 434 µM) | MIC ([4]; pH 7.1, 30° C.): 12.5 mg/L (≈ 109 µM) | MIC ([4]; pH 9.0, 30° C.): 6.3 mg/L (≈ 54.7 µM) | MIC (Pseudomonas diminuta #99; pH 7.1, 30° C.): 12.5 mg/L (≈ 109 µM) | MIC (Pseudomonas diminuta #99; pH 9.0, 30° C.): 6.3 mg/L (≈ 54.7 µM) | MIC ([5]; pH 7.1, 30° C.): 25 mg/L (≈ 217 µM) | MIC ([5]; pH 9.0, 30° C.): 25 mg/L (≈ 217 µM) | MIC (Rhodotorula rubra #156; pH 7.1, 30° C.): 25 mg/L (≈ 217 µM) | MIC (Rhodotorula rubra #156; pH 9.0, 30° C.): 25 mg/L (≈ 217 µM) | MIC (Streptomyces sp. #130; pH 7.1, 30° C.): 3.2 mg/L (≈ 27.8 µM) | MIC (Streptomyces sp. #130; pH 9.0, 30° C.): 3.2 mg/L (≈ 27.8 µM)

— patent US7699995B2, “Water treatment method” (priority 2006, dated 2010)
